Among the test systems are SW-620 colon; EKVX NSCLC; TK-10 renal; SF-539 CNS; K-562 leukemia; MALME-3M melanoma; MDA-MB-435; ACHN renal; LOX IMVI melanoma; MDA-N.
Experiment in all cases: NCI anticancer screen, dose series, 48 h

Structures are written as SMILES.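 Method: 48-hour compound exposure of cells in 96-well plates, five concentrations, linear interpolation of endpoints. GI50 = concentration required for 50% inhibition of growth. TGI is the concentration that stops growth completely.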 Where only a bound is given, the exact number is not on record here.

For `O=C1c2cc3c(cc2-c2c1c1cc(F)c(F)cc1c(=O)n2C[C@H](O)CO)OCO3`, the GI50 in the experiment on SW-620 colon was 0.0431 µM; in the experiment on EKVX NSCLC it was 0.652 µM; in the experiment on TK-10 renal, 0.335 µM; in the experiment with SF-539 CNS, 0.0288 µM; in the experiment with K-562 leukemia, 0.069 µM; in the experiment with MALME-3M melanoma it was 0.196 µM. Besides, the GI50 with MDA-MB-435 was 0.125 µM. Also, the TGI with SW-620 colon is 1.98 µM; in the experiment on EKVX NSCLC it was 8.77 µM; with TK-10 renal it was 2.11 µM; with SF-539 CNS, 0.14 µM; in the experiment on K-562 leukemia, more than 100 µM; in the experiment with MALME-3M melanoma, 0.916 µM. This compound came in with a TGI in the experiment with MDA-MB-435 of 0.422 µM.
As for `CCc1ccc(OCc2ccccc2C(=O)Nc2ccc3nc(C)cc(N)c3c2)cc1`, the GI50 in the experiment with ACHN renal is 1.73 µM; in the experiment on TK-10 renal, 1.68 µM; in the experiment with SF-539 CNS, 1.59 µM; with MALME-3M melanoma, 1.74 µM; in the experiment on MDA-MB-435, 1.43 µM. The TGI is 3.13 µM with ACHN renal; 3.17 µM with TK-10 renal; 3.04 µM with SF-539 CNS; 3.35 µM with MALME-3M melanoma; 2.77 µM in the experiment on MDA-MB-435.
For `Cn1c(=O)c2[nH]c(Nc3cccc(Cl)c3)nc2n(C)c1=O`, the TGI in the experiment on SW-620 colon, in the experiment with LOX IMVI melanoma, with EKVX NSCLC, in the experiment with TK-10 renal, in the experiment with K-562 leukemia and with MALME-3M melanoma was more than 10 µM in each case. Moreover, the TGI in the experiment with MDA-MB-435 and in the experiment with MDA-N was more than 10 µM throughout.
`CN(C)C(=O)/N=C1\SC(=Nc2ccccc2)C(=Nc2ccccc2)N1c1ccc([N+](=O)[O-])cc1`: the TGI in the experiment on K-562 leukemia, in the experiment with MALME-3M melanoma, in the experiment on MDA-MB-435 and in the experiment on MDA-N was more than 100 µM in each case.
Regarding `C=C1C[C@@H]2CC[C@@]34CC5O[C@H]6C(O[C@H]7CC[C@H](CC(=O)O[C@@H]8[C@@H](C)[C@@H]9O[C@@H]%10C[C@]%11(C[C@@H]%12O[C@]%13(C[C@H](C)[C@@H]%14O[C@@H]%15CC(C(COC(C)=O)OC(C)=O)O[C@@H]%15C[C@@H]%14O%13)C[C@H](C)[C@@H]%12O%11)O[C@@H]%10C[C@@H]9O[C@H]8CC8O[C@@H](CC[C@@H]1O2)C[C@@H](C)C8(O)CO)O[C@@H]7[C@@H]6O3)[C@H]5O4` (stereo partly specified), the TGI in the experiment with SW-620 colon, in the experiment on LOX IMVI melanoma, in the experiment with EKVX NSCLC, with ACHN renal, with TK-10 renal and in the experiment with K-562 leukemia was more than 1 µM each time. In the experiment with MDA-MB-435, this compound displayed a TGI of more than 0.879 µM.
As to `CCOC(=O)c1c(-c2ccc(OC)cc2)c(C#N)c(=S)n(C2OC(CO)C(O)C(O)C2O)c1C` (stereo unspecified), the TGI in the experiment on SW-620 colon, with LOX IMVI melanoma, in the experiment on EKVX NSCLC, in the experiment with TK-10 renal, in the experiment on SF-539 CNS and in the experiment with K-562 leukemia was more than 100 µM each time. Further, the TGI in the experiment on MALME-3M melanoma, in the experiment with MDA-MB-435 and in the experiment with MDA-N was more than 100 µM throughout.
As for `COc1ccc(C(=C2C(=O)OC(=O)C2=C(C)C)c2ccc(OC)cc2)cc1`, the TGI in the experiment on SW-620 colon, with LOX IMVI melanoma, with EKVX NSCLC, in the experiment on ACHN renal, in the experiment on TK-10 renal and in the experiment with SF-539 CNS was more than 100 µM throughout. In addition, the TGI with MALME-3M melanoma, with MDA-MB-435 and in the experiment with MDA-N was more than 100 µM throughout.
As for `CSc1ncnc2c1cnn2Cc1cn(COCC(O)CO)nn1` (stereo unspecified), the TGI in the experiment with SW-620 colon, with LOX IMVI melanoma, with EKVX NSCLC, with ACHN renal, with TK-10 renal and with SF-539 CNS was more than 100 µM each time. For the same compound, the TGI in the experiment on MDA-MB-435 and in the experiment with MDA-N was more than 100 µM each time.
Take `CN1C2CCC1C(CO)C(=O)C2` (stereo unspecified): the TGI in the experiment with SW-620 colon was 43.2 µM; in the experiment with LOX IMVI melanoma, more than 100 µM; in the experiment on ACHN renal, more than 100 µM; in the experiment on TK-10 renal, 59.3 µM; in the experiment on SF-539 CNS it was 52.9 µM; with K-562 leukemia, 72 µM. For the same compound, the TGI in the experiment on MALME-3M melanoma was 66.5 µM; with MDA-MB-435, more than 100 µM.
`CCC1(c2ccc(OC)c(OC)c2)CCN2C(=O)C(O)CC21` (stereo unspecified): the TGI with SW-620 colon, in the experiment with LOX IMVI melanoma, with EKVX NSCLC, with ACHN renal, in the experiment with TK-10 renal and in the experiment on K-562 leukemia was more than 100 µM throughout. In addition, the TGI with MDA-MB-435 and with MDA-N was more than 100 µM each time.
As to `CCc1nc2c([nH]1)C(=O)c1ccccc1C2=O`, the TGI in the experiment with SW-620 colon, in the experiment on EKVX NSCLC, with ACHN renal, in the experiment with TK-10 renal, in the experiment on SF-539 CNS and in the experiment on K-562 leukemia was more than 100 µM each time. For the same compound, the TGI in the experiment on MALME-3M melanoma stood at 49.5 µM.
On to `CC(=O)OC1COC(N2c3ccccc3[C@@H]3CCc4c([nH]c5ccccc45)[C@@H]32)C(OC(C)=O)C1OC(C)=O` (mixture of isomers), for which the TGI in the experiment with SW-620 colon, with EKVX NSCLC, with TK-10 renal, in the experiment with MALME-3M melanoma, in the experiment on MDA-MB-435 and with MDA-N was more than 100 µM in each case.
Turning to `Cc1ccc(S(=O)(=O)N2CCc3cc(O)c([N+](=O)[O-])cc32)cc1`, the TGI in the experiment on SW-620 colon, in the experiment with LOX IMVI melanoma, in the experiment with ACHN renal, in the experiment on TK-10 renal, in the experiment with SF-539 CNS and with MALME-3M melanoma was more than 100 µM in each case. The TGI with MDA-MB-435 and with MDA-N was more than 100 µM in each case.
Consider `O/N=C/[C@H]1COC2(CCCCC2)O1`, for which the TGI in the experiment on SW-620 colon, in the experiment with LOX IMVI melanoma, in the experiment on EKVX NSCLC, with ACHN renal, in the experiment on TK-10 renal and with K-562 leukemia was more than 100 µM each time. Further, the TGI in the experiment on MALME-3M melanoma, in the experiment on MDA-MB-435 and in the experiment with MDA-N was more than 100 µM in each case.
`O=C1CN(c2ccccc2)C(=O)C1C(=O)Nc1ccc(Cl)c(Cl)c1` (stereo unspecified): the TGI with SW-620 colon turned out to be 11.9 µM; in the experiment with ACHN renal, 14.8 µM; with TK-10 renal, 18.5 µM; with SF-539 CNS it was 16.3 µM; in the experiment on K-562 leukemia it was 8.88 µM.
For the compound `Oc1ccc(C[C@@H]2CN[C@H](Cc3ccc(O)c(Br)c3)CN2)cc1`, the TGI in the experiment with SW-620 colon, in the experiment on EKVX NSCLC, with ACHN renal, with TK-10 renal, in the experiment with SF-539 CNS and in the experiment on MDA-MB-435 was more than 100 µM in each case.

The values above are taken from PubChem BioAssay (NCI).
